Key:
Format in all cases: biochemical
[1] = biological target: T1, Lck (Homo sapiens, UniProt P06239); experiment: Kinase inhibition assay (33P transfer), Lck; conditions: Table 3; read-out: Lck-1
T1 construct: Kinases are expressed as either kinase domains or full length constructs; made in house
In short: (§1)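 GST/His-tagged kinase (domain or full length; E. coli or baculovirus) + [33P]ATP on plates coated with poly(Glu,Tyr) 4:1 or poly(Arg,Ser) 3:1; incubate, wash 0.5% H3PO4, add scintillant, count.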

[2] = biological target: T2, Lyn (Homo sapiens, UniProt P07948); experiment: Kinase inhibition assay (33P transfer), Lyn; conditions: Table 6, Lyn-1 kinase inhibition class
T2 construct: Kinases are expressed as either kinase domains or full length constructs; made in house
T2 sequence (P07948 whole entry, species assumed, the tested form may be a part): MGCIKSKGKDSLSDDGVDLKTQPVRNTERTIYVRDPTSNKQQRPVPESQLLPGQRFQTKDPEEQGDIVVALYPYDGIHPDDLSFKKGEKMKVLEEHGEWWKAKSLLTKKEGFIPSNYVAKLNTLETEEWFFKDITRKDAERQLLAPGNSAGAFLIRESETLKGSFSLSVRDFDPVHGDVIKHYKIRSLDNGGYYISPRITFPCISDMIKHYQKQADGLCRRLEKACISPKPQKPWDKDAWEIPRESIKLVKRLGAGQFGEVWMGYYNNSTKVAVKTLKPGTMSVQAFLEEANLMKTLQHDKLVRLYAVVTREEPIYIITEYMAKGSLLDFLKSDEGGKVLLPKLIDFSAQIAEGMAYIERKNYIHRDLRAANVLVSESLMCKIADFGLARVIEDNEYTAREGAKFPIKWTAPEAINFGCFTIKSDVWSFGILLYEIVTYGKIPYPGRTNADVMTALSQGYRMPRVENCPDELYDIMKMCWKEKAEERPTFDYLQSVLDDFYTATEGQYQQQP
Source text: (§2) The inhibitor compounds described herein are screened in the following manner. Kinases suitable for use in the following protocol to determine kinase activity of the compounds described herein include, -but are not limited to: Lck, Lyn, Src, Fyn, Syk, Zap-70, Itk, Tec, Btk, EGFR, ErbB2, Kdr, Flt-1, Flt-3, Tek, c-Met, InsR, and AKT.
(§3) Kinases are expressed as either kinase domains or full length constructs fused to glutathione S-transferase (GST) or polyHistidine tagged fusion proteins in either E. colior Baculovirus-High Five expression systems. They are purified to near homogeneity by affinity chromatography essentially as previously described (Lehr et al., 1996; Gish et al., 1995). In some instances, kinases are co-expressed or mixed with purified or partially purified regulatory polypeptides prior to measurement of activity.
(§4) Kinase activity and inhibition are measured essentially by established protocols (Braunwalder et al., 1996). Briefly, The transfer of ^33PO4 from ATP to the synthetic substrates poly(Glu, Tyr) 4:1 or poly(Arg, Ser) 3:1 attached to the bioactive surface of microtiter plates serves as the basis to evaluate enzyme activity. After an incubation period, the amount of phosphate transferred is measured by first washing the plate with 0.5% phosphoric acid, adding liquid scintillant, and then counting in a liquid scintillation detector. The IC50 is determined by the concentration of compound that causes a 50% reduction in the amount of […] incorporated onto the substrate bound to the plate.

[3] = biological target: T3, Src (Homo sapiens, UniProt P12931); experiment: Kinase inhibition assay (33P transfer), Src; conditions: Table 6, Src-1 kinase inhibition class
T3 construct: Kinases are expressed as either kinase domains or full length constructs; made in house
T3 sequence (P12931 whole entry, species assumed, the tested form may be a part): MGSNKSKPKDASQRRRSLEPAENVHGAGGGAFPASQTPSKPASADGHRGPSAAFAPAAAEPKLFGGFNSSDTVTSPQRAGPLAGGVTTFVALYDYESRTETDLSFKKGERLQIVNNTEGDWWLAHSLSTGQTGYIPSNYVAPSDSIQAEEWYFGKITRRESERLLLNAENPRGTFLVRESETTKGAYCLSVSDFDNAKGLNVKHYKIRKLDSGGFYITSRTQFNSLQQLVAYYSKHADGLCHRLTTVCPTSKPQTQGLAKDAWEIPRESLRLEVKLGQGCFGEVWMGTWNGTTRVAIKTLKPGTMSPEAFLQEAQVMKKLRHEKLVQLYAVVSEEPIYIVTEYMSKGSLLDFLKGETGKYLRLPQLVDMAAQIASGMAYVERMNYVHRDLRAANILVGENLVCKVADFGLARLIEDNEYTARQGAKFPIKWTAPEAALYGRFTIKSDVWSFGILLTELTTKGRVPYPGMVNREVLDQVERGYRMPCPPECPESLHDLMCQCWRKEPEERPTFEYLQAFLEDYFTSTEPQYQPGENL
Source text: as §2, §3, §4

[4] = biological target: T4, Fyn (Homo sapiens, UniProt P06241); experiment: Kinase inhibition assay (33P transfer), Fyn; conditions: read-out: Fyn-1
T4 construct: Kinases are expressed as either kinase domains or full length constructs; made in house
Source text: as §2, §3, §4

[5] = biological target: T5, Zap-70 (Homo sapiens, UniProt P43403); experiment: Kinase inhibition assay (33P transfer), Zap-70; conditions: Table 3; read-out: Zap-1
T5 construct: Kinases are expressed as either kinase domains or full length constructs; made in house
T5 sequence (P43403 1-619): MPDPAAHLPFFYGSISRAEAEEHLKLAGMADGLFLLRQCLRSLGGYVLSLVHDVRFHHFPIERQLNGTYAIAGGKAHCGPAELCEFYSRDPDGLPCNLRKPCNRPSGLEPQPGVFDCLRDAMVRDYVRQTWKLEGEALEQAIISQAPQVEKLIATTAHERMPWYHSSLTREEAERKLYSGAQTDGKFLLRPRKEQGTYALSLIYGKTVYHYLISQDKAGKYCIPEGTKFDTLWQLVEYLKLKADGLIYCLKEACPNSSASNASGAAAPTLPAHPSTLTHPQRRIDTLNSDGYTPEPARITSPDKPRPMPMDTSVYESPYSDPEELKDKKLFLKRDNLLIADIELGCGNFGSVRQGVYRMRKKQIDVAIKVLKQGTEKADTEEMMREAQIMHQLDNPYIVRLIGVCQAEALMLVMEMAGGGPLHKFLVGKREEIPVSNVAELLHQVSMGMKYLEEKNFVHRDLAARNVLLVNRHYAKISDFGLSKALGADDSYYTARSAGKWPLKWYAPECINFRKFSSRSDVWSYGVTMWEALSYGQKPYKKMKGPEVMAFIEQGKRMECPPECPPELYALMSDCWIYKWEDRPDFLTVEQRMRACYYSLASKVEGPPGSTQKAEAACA
In short: as §1

[6] = biological target: T6, Itk (Homo sapiens, UniProt Q08881); experiment: Kinase inhibition assay (33P transfer), Itk; conditions: Table 3; read-out: Itk-1
T6 construct: Kinases are expressed as either kinase domains or full length constructs; made in house
T6 sequence (Q08881 1-620): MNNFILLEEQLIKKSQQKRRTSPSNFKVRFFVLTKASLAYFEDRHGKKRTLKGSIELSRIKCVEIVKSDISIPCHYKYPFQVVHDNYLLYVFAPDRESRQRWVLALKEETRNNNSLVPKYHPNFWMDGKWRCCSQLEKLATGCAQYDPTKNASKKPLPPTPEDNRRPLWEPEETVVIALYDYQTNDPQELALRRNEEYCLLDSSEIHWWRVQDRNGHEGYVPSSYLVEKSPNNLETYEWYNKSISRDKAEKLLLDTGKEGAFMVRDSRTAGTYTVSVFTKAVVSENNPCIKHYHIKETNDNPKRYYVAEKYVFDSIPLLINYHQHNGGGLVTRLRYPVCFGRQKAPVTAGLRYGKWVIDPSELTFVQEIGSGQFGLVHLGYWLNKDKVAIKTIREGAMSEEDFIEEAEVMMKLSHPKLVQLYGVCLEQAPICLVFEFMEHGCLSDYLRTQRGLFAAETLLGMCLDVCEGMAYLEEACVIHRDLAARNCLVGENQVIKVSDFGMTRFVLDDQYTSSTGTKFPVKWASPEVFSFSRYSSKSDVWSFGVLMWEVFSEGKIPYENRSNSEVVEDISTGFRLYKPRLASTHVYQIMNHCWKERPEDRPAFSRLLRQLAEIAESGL
In short: (§5)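 Each enzyme, purified to near homogeneity by affinity chromatography, was incubated with ATP carrying 33P and a substrate polymer fixed to the plate. Unbound label was removed with dilute phosphoric acid (0.5%) before adding scintillant and counting. Potency is given as the compound level cutting label uptake by 50%.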

[7] = biological target: T7, EGFR (Homo sapiens, UniProt P00533); experiment: Kinase inhibition assay (33P transfer), EGFR; conditions: Table 2, kinase inhibition class; read-out: EGFR-1
T7 construct: Kinases are expressed as either kinase domains or full length constructs; made in house
T7 sequence (P00533 25-1210, species assumed): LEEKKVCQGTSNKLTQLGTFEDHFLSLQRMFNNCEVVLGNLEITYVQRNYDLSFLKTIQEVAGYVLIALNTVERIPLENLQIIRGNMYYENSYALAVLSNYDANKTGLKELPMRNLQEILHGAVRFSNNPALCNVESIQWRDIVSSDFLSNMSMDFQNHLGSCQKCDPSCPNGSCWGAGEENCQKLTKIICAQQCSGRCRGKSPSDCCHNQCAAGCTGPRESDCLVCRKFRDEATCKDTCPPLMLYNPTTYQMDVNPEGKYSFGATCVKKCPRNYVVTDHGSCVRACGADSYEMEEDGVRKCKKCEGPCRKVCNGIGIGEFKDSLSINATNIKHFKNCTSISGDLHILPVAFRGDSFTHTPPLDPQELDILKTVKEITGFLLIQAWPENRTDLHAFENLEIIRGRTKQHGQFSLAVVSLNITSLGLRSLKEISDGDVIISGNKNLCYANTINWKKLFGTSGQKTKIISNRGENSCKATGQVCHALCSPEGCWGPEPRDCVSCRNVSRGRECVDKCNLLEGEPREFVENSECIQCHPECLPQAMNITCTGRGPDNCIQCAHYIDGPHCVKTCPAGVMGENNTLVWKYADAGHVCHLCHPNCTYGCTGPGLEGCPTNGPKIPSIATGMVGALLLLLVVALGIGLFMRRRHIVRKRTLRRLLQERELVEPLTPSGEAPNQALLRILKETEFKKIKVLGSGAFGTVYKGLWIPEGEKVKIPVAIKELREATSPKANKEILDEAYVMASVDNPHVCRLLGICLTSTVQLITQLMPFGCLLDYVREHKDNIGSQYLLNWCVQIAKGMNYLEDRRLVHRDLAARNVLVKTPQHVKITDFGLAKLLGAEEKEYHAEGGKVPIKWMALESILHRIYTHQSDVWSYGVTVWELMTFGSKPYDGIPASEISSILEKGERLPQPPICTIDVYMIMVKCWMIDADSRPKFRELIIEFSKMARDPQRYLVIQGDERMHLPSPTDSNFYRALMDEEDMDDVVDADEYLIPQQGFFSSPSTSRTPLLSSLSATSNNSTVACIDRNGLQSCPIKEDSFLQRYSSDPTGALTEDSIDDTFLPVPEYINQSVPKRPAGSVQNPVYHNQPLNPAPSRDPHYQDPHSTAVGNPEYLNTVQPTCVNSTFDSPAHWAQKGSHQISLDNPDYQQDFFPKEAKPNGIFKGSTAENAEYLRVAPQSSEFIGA
In short: as §5

[8] = biological target: T8, Kdr (Homo sapiens, UniProt P35968); experiment: Kinase inhibition assay (33P transfer), Kdr; conditions: Table 3; read-out: KDR-1
T8 construct: Kinases are expressed as either kinase domains or full length constructs; made in house
In short: as §1

[9] = biological target: T9, Flt-1 (Homo sapiens, UniProt P17948); experiment: Kinase inhibition assay (33P transfer), Flt-1
T9 construct: Kinases are expressed as either kinase domains or full length constructs; made in house
Source text: as §2, §3, §4

[10] = biological target: T10, Tek (Homo sapiens, UniProt Q02763); experiment: Kinase inhibition assay (33P transfer), Tek; conditions: read-out: Tek-1
T10 construct: Kinases are expressed as either kinase domains or full length constructs; made in house
In short: as §5

[11] = biological target: T11, c-Met (Homo sapiens, UniProt P08581); experiment: Kinase inhibition assay (33P transfer), c-Met; conditions: Table 2, kinase inhibition class; read-out: Met-1
T11 construct: Kinases are expressed as either kinase domains or full length constructs; made in house
T11 sequence (P08581 25-1390): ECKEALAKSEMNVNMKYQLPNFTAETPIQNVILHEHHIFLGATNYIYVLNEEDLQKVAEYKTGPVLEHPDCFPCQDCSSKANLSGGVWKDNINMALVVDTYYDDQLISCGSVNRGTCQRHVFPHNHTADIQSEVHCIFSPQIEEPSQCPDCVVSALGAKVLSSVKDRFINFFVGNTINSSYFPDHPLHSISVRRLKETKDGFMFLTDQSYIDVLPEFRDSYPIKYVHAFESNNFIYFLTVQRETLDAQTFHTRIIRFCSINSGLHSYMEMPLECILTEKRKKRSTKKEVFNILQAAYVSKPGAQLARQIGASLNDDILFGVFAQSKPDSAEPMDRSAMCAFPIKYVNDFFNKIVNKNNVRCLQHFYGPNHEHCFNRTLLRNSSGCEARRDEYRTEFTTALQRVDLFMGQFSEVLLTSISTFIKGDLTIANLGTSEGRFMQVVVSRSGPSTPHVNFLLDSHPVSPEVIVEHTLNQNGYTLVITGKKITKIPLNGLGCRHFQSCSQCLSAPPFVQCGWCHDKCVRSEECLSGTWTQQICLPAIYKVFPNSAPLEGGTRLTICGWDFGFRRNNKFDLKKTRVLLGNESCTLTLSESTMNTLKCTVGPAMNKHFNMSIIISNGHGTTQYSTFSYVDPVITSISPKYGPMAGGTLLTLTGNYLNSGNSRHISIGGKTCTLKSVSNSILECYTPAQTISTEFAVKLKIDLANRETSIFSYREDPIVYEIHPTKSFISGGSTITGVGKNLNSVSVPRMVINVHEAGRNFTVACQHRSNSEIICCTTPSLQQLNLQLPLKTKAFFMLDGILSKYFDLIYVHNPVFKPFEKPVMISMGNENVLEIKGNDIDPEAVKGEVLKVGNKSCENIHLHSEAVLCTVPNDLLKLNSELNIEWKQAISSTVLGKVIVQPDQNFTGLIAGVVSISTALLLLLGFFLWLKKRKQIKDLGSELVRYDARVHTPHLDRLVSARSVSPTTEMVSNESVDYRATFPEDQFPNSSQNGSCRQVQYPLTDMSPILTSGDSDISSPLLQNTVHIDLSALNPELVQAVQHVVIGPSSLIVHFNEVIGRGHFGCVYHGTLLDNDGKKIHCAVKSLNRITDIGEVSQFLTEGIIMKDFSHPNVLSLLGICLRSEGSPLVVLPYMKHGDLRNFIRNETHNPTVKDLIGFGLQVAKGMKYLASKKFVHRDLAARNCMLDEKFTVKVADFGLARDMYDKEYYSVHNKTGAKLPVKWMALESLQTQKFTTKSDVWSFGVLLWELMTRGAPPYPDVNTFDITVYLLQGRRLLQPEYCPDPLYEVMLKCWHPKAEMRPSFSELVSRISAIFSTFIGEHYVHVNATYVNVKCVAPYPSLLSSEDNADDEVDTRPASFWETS
In short: as §5

[12] = biological target: T12, AKT (Homo sapiens, UniProt Q9Y243); experiment: Kinase inhibition assay (33P transfer), AKT; conditions: Table 2, kinase inhibition class; read-out: AKT3-1
T12 construct: Kinases are expressed as either kinase domains or full length constructs; made in house
In short: as §1

[13] = biological target: T13, PDGFRB (Homo sapiens, UniProt P09619); experiment: Kinase inhibition assay (33P transfer), PDGFRB; conditions: read-out: PDGFRB-1
T13 construct: Kinases are expressed as either kinase domains or full length constructs; made in house

[14] = biological target: T14, Hck-1 (Homo sapiens, UniProt P08631); experiment: Kinase inhibition assay (33P transfer), Hck; conditions: Table 6, Hck-1 kinase inhibition class
T14 construct: Kinases are expressed as either kinase domains or full length constructs; made in house

[15] = biological target: T15, ErbB4 (Homo sapiens, UniProt Q15303); experiment: Kinase inhibition assay (33P transfer), ErbB4; conditions: read-out: ErbB4-1
T15 construct: Kinases are expressed as either kinase domains or full length constructs; made in house
T15 sequence (Q15303 26-1308, species assumed): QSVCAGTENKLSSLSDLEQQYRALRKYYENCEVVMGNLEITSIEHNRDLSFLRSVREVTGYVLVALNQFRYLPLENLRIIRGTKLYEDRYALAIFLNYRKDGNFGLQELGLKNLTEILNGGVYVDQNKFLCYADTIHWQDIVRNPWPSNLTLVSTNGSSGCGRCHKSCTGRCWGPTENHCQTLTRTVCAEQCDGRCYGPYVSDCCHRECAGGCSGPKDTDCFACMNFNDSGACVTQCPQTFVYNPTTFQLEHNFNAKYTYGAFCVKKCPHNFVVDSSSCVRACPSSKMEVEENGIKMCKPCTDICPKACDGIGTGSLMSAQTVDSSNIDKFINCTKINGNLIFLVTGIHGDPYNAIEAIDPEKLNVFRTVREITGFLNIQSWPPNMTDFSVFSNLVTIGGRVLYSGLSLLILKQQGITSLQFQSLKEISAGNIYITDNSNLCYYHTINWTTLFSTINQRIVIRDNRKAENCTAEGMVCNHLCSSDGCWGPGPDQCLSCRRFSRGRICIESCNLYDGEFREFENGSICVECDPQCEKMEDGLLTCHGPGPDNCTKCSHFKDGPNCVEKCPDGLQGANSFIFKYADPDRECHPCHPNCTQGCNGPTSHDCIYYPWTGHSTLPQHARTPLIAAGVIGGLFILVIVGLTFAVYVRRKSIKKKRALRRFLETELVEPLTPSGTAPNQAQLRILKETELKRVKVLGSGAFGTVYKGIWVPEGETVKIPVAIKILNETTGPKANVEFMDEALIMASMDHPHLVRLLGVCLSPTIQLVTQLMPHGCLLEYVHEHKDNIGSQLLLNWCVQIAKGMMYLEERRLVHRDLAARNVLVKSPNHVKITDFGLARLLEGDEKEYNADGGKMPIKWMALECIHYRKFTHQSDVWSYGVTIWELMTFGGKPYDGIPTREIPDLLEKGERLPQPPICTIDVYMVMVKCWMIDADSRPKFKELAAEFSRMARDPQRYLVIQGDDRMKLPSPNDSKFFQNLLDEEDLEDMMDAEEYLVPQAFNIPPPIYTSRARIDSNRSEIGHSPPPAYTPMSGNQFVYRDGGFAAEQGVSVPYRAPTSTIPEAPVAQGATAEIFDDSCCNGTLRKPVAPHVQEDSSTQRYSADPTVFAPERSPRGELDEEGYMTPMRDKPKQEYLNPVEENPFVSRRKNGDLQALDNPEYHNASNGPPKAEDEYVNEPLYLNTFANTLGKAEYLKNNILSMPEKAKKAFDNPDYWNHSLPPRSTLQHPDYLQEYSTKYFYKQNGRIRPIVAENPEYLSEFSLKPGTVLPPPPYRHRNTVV

[16] = biological target: T16, FGFR1 (Homo sapiens, UniProt P11362); experiment: Kinase inhibition assay (33P transfer), FGFR1; conditions: read-out: FGFR1-1
T16 construct: Kinases are expressed as either kinase domains or full length constructs; made in house

| SMILES | IC50 [1] | IC50 [2] | IC50 [3] | IC50 [4] | IC50 [5] | IC50 [6] | IC50 [7] | IC50 [8] | IC50 [9] | IC50 [10] | IC50 [11] | IC50 [12] | IC50 [13] | IC50 [14] | IC50 [15] | IC50 [16] |
| --- | --- | --- | --- | --- | --- | --- | --- | --- | --- | --- | --- | --- | --- | --- | --- | --- |
| COc1cc(Nc2ncnc(-n3c(Nc4ccc5cn[nH]c5c4)nc4ccccc43)n2)cc(OC)c1OC [Compound 406] | 0.785 to 4.71 µM | 0.785 to 4.71 µM | > 8.83 µM | 0.785 to 4.71 µM | > 8.83 µM | > 8.83 µM | > 8.83 µM | 0.785 to 4.71 µM | 4.71 to 6.87 µM | > 8.83 µM | > 8.83 µM | > 8.83 µM | 0.785 to 4.71 µM | > 8.83 µM | > 8.83 µM | < 0.785 µM |
| COc1cc(Nc2ncnc(-n3c(NCC(C)C)nc4ccccc43)n2)cc(OC)c1OC [Compound 407] | < 0.89 µM | < 0.89 µM | < 0.89 µM | < 0.89 µM | > 10 µM | > 10 µM | > 10 µM | < 0.89 µM | < 0.89 µM | > 10 µM | > 10 µM | > 10 µM | < 0.89 µM | > 10 µM | > 10 µM | < 0.89 µM |
| CCOC(=O)Cc1cn(-c2ncnc(Nc3cc(OC)c(OC)c(OC)c3)n2)c2ccccc12 [Compound 411] | 7.55 to 9.71 µM | 0.863 to 5.18 µM | 0.863 to 5.18 µM | > 9.71 µM | > 9.71 µM | > 9.71 µM | > 9.71 µM | < 0.863 µM | 0.863 to 5.18 µM | > 9.71 µM | < 0.863 µM | > 9.71 µM | < 0.863 µM | > 9.71 µM | > 9.71 µM | < 0.863 µM |
| C=CCNc1cc(-c2ncnc(Nc3cc(OC)c(OC)c(OC)c3)n2)ccn1 [Compound 412] | < 1.01 µM | < 1.01 µM | > 11.4 µM | > 11.4 µM | > 11.4 µM | > 11.4 µM | > 11.4 µM | 1.01 to 6.08 µM | > 11.4 µM | > 11.4 µM | > 11.4 µM | > 11.4 µM | 6.08 to 8.87 µM | > 11.4 µM | > 11.4 µM | > 11.4 µM |
| COc1cc(Nc2ncnc(-n3c(NCc4ccncc4)nc4ccccc43)n2)cc(OC)c1OC [Compound 413] | > 9.29 µM | 0.826 to 4.95 µM | 0.826 to 4.95 µM | 0.826 to 4.95 µM | > 9.29 µM | > 9.29 µM | > 9.29 µM | < 0.826 µM | 0.826 to 4.95 µM | > 9.29 µM | > 9.29 µM | > 9.29 µM | < 0.826 µM | > 9.29 µM | > 9.29 µM | < 0.826 µM |
| COc1cccc(Nc2nc3ccccc3n2-c2ncnc(Nc3cc(OC)c(OC)c(OC)c3)n2)c1 [Compound 415] | 4.8 to 7.01 µM | > 9.01 µM | > 9.01 µM | > 9.01 µM | > 9.01 µM | > 9.01 µM | > 9.01 µM | < 0.801 µM | 0.801 to 4.8 µM | > 9.01 µM | > 9.01 µM | > 9.01 µM | < 0.801 µM | > 9.01 µM | > 9.01 µM | < 0.801 µM |
| COc1cc(Nc2ncnc(-n3c(NCc4cccnc4)nc4ccccc43)n2)cc(OC)c1OC [Compound 416] | 0.826 to 4.95 µM | 0.826 to 4.95 µM | 4.95 to 7.22 µM | 7.22 to 9.29 µM | > 9.29 µM | > 9.29 µM | > 9.29 µM | < 0.826 µM | 0.826 to 4.95 µM | > 9.29 µM | > 9.29 µM | > 9.29 µM | < 0.826 µM | > 9.29 µM | > 9.29 µM | < 0.826 µM |
